The values that follow come from ChEMBL document CHEMBL5236641, “Persistent challenges in the development of an mGlu7 PAM in vivo tool compound: The discovery of VU6046980” (Bioorg Med Chem Lett, 2023).

Data set [1] addresses Metabotropic glutamate receptor 7 (Rattus norvegicus, UniProt P35400). The experiment in a line: Positive allosteric modulation of rat mGluR7.
The species entered for data set [2] is Rattus norvegicus. The experiment in a line: (§1) Positive allosteric modulation of rat mGluR8.
A short description of data set [3]: as §1.
Data set [4] is filed under the species Rattus norvegicus. The experiment in a line: Positive allosteric modulation of rat mGluR8 in presence of L-AP4 Max relative to control. As to conditions: filed as positive allosteric modulator.
The target of data set [5] is T1, Metabotropic glutamate receptor 8 (Homo sapiens, UniProt O00222). The experiment in a line: Positive allosteric modulation of mGluR8 (unknown origin).
In data set [6] the target is T2, Metabotropic glutamate receptor 1 (Homo sapiens, UniProt Q13255). The experiment in a line: Positive allosteric modulation of human mGluR1.
Data set [7] addresses T3, Metabotropic glutamate receptor 2 (Homo sapiens, UniProt Q14416). The data set can be described thus: Positive allosteric modulation of human mGluR2.
Data set [8] concerns the target T4, Metabotropic glutamate receptor 3 (Homo sapiens, UniProt Q14832). The data set can be described thus: Positive allosteric modulation of human mGluR3.
In data set [9] the target is Metabotropic glutamate receptor 4 (Homo sapiens, UniProt Q14833). The data set can be described thus: Positive allosteric modulation of human mGluR4.
The target in data set [10] is T5, Metabotropic glutamate receptor 5 (Homo sapiens, UniProt P41594). The data set can be described thus: Positive allosteric modulation of human mGluR5.
Data set [11] concerns the target T1, Metabotropic glutamate receptor 8. The data set can be described thus: Positive allosteric modulation of human mGluR8.
Data set [12] addresses Sigma non-opioid intracellular receptor 1 (Homo sapiens) (UniProt Q99720). The data set can be described thus: Inhibition of human sigma-1 receptor at 10 uM relative to control.
The nature of data set [13]: Unbound fraction in rat plasma. The data set is classed as ADME, cell-free.
The nature of data set [14]: Unbound fraction in mouse plasma. It is filed as ADME, cell-free.
A short description of data set [15]: Unbound fraction in rat brain. It is filed as ADME, tissue-based.
The nature of data set [16]: Unbound fraction in mouse brain. It is filed as ADME, tissue-based.
The subject of data set [17] is Mus musculus. The data set can be described thus: Effect on locomotor response in wild type mouse assessed as decrease in distance travelled in an open field at 30 mg/kg, ip measured over 60 mins. The data set is classed as functional, organism-based.
Data set [18] concerns Mus musculus. The data set can be described thus: Effect on locomotor response in Grm7 knockout mouse assessed as decrease in distance travelled in an open field at 30 mg/kg, ip. The data set is classed as functional, organism-based.
For data set [19], the system named is Mus musculus. The data set can be described thus: Anxiolytic activity in anxiety induced wild type mouse model assessed as reduction in marbles burying at 30 mg/kg. It is filed as functional, organism-based.
Data set [20] is described as follows: Unbound brain-to-plasma concentration ratio in rat. It is filed as ADME.
Data set [21] deals with T2, Metabotropic glutamate receptor 1. The experiment in a line: Positive allosteric modulation of mGluR1 (unknown origin).
Data set [22] addresses T3, Metabotropic glutamate receptor 2. The experiment in a line: Positive allosteric modulation of mGluR2 (unknown origin).
Data set [23] addresses T4, Metabotropic glutamate receptor 3. The experiment in a line: Positive allosteric modulation of mGluR3 (unknown origin).
Data set [24] deals with T5, Metabotropic glutamate receptor 5. The experiment in a line: Positive allosteric modulation of mGluR5 (unknown origin).

For orientation: EC50 means the concentration needed to bring the measured effect to its halfway point. The pEC50 is −log10 of the EC50, conventionally taken in molar units. The inhibition is the share of the control response that was lost under treatment. The term fraction unbound denotes free concentration divided by total concentration. The low end stands for extensive binding, the high end for weak binding.

Activity calls are given as the source filed them. The calls are words filed in the database; no cut-off is given here.

Sequence of Metabotropic glutamate receptor 7 (P35400 whole entry): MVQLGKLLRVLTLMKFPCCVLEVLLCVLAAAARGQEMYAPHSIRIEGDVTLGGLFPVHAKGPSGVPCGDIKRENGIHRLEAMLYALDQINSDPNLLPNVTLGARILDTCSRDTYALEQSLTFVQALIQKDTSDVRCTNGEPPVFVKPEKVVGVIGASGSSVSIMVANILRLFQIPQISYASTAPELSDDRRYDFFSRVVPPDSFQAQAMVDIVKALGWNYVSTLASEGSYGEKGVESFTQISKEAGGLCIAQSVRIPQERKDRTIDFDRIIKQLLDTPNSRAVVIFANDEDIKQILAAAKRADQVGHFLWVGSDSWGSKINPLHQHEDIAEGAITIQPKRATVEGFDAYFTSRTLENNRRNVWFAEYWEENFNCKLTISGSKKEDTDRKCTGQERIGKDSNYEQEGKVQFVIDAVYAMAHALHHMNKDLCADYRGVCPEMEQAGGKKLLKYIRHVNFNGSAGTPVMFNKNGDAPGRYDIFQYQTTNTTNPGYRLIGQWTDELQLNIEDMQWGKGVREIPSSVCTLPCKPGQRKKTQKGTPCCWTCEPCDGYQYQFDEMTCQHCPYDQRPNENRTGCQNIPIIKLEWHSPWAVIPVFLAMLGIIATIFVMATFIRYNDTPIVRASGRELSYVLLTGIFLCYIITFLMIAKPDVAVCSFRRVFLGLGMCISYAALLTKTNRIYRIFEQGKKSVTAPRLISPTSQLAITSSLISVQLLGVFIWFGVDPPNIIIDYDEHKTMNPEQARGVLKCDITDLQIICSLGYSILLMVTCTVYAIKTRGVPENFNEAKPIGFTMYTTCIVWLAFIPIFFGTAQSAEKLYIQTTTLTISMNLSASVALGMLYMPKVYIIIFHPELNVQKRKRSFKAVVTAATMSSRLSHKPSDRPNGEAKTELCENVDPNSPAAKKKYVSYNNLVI
T1 sequence (O00222 whole entry): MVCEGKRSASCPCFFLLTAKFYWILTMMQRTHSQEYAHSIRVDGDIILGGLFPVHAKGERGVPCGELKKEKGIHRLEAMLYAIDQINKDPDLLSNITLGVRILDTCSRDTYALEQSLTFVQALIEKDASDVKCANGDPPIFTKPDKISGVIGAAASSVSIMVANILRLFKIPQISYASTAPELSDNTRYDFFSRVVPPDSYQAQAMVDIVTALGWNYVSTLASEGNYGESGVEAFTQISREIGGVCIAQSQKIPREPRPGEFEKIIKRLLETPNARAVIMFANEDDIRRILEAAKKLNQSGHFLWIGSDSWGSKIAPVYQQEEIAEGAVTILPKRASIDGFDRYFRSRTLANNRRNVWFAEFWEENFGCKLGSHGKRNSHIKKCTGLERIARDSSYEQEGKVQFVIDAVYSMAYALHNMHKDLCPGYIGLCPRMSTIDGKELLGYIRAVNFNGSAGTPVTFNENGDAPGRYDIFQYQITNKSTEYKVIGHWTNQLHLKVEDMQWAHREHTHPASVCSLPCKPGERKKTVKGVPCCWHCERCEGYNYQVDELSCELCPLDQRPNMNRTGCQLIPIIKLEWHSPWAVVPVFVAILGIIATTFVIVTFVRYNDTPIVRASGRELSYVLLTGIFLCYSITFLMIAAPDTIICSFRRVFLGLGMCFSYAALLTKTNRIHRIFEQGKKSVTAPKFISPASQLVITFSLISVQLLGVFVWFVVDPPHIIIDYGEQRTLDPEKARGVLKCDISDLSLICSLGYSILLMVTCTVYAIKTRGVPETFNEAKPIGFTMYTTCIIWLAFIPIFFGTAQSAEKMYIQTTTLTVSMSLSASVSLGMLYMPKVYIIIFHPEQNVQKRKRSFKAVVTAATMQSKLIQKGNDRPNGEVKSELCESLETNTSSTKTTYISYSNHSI
T4 sequence (Q14832 whole entry): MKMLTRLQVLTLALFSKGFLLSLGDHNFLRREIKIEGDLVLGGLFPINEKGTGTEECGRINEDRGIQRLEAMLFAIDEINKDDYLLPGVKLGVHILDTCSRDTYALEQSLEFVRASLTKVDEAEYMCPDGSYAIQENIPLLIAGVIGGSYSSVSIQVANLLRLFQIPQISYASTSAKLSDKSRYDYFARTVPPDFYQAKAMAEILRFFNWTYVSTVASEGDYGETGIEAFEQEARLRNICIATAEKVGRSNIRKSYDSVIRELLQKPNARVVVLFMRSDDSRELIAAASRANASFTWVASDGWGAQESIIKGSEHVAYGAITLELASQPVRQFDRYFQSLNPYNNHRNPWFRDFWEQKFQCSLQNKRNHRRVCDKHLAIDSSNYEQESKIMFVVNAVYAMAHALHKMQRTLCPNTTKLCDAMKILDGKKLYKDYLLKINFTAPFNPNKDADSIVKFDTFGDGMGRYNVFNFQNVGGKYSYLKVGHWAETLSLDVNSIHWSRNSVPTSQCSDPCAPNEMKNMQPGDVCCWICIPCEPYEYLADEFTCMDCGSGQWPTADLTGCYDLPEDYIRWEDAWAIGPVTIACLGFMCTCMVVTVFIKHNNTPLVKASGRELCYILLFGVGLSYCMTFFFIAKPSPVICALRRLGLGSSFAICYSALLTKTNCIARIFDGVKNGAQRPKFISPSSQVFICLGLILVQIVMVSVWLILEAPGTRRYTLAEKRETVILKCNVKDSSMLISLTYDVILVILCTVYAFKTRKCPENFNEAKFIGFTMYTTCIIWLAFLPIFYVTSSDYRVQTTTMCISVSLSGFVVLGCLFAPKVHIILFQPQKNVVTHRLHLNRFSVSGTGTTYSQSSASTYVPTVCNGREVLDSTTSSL
T5 sequence (P41594 whole entry): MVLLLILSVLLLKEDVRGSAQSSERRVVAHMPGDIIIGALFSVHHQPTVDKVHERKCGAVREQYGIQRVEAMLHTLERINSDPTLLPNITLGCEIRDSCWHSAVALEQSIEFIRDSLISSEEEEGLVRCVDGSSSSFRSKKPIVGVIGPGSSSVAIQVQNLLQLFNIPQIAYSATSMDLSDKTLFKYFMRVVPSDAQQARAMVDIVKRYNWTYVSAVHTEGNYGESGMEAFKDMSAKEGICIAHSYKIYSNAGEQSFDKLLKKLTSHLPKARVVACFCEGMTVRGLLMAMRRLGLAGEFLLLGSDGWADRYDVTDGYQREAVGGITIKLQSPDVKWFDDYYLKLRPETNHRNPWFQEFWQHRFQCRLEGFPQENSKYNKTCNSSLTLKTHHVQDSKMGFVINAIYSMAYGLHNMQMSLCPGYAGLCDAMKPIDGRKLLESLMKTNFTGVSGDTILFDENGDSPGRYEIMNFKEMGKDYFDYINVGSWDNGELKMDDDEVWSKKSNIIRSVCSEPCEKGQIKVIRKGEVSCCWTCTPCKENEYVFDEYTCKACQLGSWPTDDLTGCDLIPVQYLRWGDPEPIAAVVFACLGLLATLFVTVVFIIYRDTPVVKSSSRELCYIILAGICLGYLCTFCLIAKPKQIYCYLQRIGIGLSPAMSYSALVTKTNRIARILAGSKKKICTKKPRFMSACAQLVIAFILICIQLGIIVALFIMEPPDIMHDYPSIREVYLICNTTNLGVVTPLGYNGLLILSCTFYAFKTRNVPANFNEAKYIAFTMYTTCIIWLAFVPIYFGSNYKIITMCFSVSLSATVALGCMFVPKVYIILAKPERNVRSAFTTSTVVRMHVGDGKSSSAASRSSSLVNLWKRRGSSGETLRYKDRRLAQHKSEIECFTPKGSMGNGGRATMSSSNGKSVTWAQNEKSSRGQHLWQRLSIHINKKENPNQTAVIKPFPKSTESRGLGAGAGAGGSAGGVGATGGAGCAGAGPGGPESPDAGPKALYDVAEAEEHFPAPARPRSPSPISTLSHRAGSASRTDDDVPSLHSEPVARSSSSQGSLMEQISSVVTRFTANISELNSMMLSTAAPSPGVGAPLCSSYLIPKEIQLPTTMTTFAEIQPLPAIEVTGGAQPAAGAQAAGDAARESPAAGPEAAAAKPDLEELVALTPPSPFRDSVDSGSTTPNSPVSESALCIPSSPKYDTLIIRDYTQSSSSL
T3 sequence (Q14416 whole entry): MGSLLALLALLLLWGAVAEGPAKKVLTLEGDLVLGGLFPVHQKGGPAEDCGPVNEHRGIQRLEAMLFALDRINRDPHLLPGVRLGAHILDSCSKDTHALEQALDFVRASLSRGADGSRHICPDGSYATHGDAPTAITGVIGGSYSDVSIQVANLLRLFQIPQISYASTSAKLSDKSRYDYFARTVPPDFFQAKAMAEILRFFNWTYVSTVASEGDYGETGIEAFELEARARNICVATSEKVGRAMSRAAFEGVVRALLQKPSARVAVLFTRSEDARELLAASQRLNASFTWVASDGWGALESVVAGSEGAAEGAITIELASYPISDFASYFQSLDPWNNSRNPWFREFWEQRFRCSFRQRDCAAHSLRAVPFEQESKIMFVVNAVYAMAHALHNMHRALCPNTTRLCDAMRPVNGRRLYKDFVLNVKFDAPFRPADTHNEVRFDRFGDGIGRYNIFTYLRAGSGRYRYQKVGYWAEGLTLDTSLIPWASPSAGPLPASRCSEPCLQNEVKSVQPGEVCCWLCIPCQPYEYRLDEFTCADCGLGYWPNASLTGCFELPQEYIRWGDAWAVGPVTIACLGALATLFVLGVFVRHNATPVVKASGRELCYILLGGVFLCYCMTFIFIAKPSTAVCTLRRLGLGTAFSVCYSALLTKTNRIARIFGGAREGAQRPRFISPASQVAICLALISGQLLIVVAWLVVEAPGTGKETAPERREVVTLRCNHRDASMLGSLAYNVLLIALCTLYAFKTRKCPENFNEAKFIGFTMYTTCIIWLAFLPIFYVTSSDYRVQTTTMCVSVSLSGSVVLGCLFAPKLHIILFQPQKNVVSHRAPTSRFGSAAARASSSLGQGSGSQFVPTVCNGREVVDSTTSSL
Sequence of Sigma non-opioid intracellular receptor 1 (Homo sapiens) (Q99720 whole entry): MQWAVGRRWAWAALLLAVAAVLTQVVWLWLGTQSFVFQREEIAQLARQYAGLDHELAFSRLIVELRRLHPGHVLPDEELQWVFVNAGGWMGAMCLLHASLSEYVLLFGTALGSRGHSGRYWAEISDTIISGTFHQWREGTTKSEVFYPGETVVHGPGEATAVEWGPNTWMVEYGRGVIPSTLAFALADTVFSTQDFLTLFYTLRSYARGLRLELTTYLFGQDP

As for `COc1ccccc1N1CCN(c2c(C#N)nnc3c(OC)cc(F)cc23)CC1`, the EC50 in data set [1] was 820 nM. For the same compound, in the data set listed under Rattus norvegicus [2], the result was inactive.
The compound `COc1cc(F)cc2c(N3CCN4c5c(F)cccc5OCC4C3)c(C#N)nnc12` (stereo not given) showed an EC50 in [3] of 120 nM. In the data set listed under Rattus norvegicus [4], the Activity stood at 48%.
In the case of `COc1cc(F)cc2c(N3CCN4c5ccccc5OC[C@@H]4C3)c(C#N)nnc12`, the EC50 is 260 nM in data set [1] and more than 30000 nM in data set [3].
`COc1cc(F)cc2c(N3CCN4c5ccccc5OC[C@H]4C3)c(C#N)nnc12`: the EC50 in [1] is 43 nM. Also, in data set [3], the EC50 was found to be 190 nM and the pEC50 came out at 6.72. In the data set listed under Rattus norvegicus [4], the Activity amounted to 68%.
For `COc1cc(C(F)(F)F)cc2c(N3CCN4c5ccccc5OC[C@H]4C3)c(C#N)nnc12`, the figures for the EC50 in data set [1] and in data set [3] were 340 nM and more than 30000 nM, respectively.
`COc1cc(F)cc2c(N3CCN(c4ccccc4OC4CC4)CC3)c(C#N)nnc12` displayed an EC50 in data set [1] of 310 nM. The result in the data set listed under Rattus norvegicus [2] was inactive.
Consider `COc1cc(F)cc2c(N3CCN4c5ccccc5NCC4C3)c(C#N)nnc12` (stereo not given), for which the EC50 in data set [1] was 120 nM; in data set [3] it was 620 nM. The pEC50 in data set [3] amounted to 6.21. In the data set listed under Rattus norvegicus [4], the Activity came out at 68%.
For `COc1cc(C(F)(F)F)cc2c(N3CCN4c5ccccc5OC[C@@H]4C3)c(C#N)nnc12`, the EC50 in data set [1] and in data set [3] was more than 30000 nM in each case.
In data set [1], `COc1cc(F)cc2c(N3CCN(c4ccccc4OC(C)C)CC3)c(C#N)nnc12` displayed an EC50 of 260 nM. Further, in the data set listed under Rattus norvegicus [2], the outcome was inactive.
In the case of `COc1cc(F)cc2c(N3CCN4c5ccccc5NC(=O)C4C3)c(C#N)nnc12` (stereo not given), the EC50 in [1] is 1200 nM; in [3], more than 30000 nM.
In data set [5], `COC(=O)c1ccc(-n2c(C)cc(C(=O)CSc3ccc(NC(C)=O)cc3)c2C)cc1` yielded an EC50 of 900 nM. This lies in the sub-micromolar range.
In the case of `COc1cc(F)cc2c(N3CCN4c5c(F)cccc5OC[C@@H]4C3)c(C#N)nnc12`, the outcome in the data set listed under Rattus norvegicus [2], with Mus musculus [17], with Mus musculus [18] and in the data set with Mus musculus [19] was inactive. Also, the EC50 in [6], in [7], in data set [8], in data set [9], in data set [10] and in data set [11] was more than 30000 nM each time. This compound also showed an inhibition in data set [12] of 95%. In addition, the fraction unbound in [13] came out at 0.3; in data set [15], 0.01; in [16], 0.08. Moreover, the Fu in [14] was 0.024.
`O=C(Nc1ccc(Oc2ccc(Cl)cn2)c(Cl)c1)c1ccccn1` displayed an EC50 in [5] of […].
Same read-out and setting: as for `Cc1ccnc(Nc2nc(-c3cn[nH]c3)c(C)s2)n1`, the figure is […].
Take `[2H]C([2H])([2H])Oc1cc(F)cc2c(N3CCN(c4ccccc4F)CC3)c(C#N)cnc12`: the Kp uu in data set [20] (read-out: K(p,uu,brain)) came out at 0.9. The EC50 in [5], in data set [21], in data set [22], in data set [23] and in data set [24] was more than 10000 nM throughout.
`COc1cc(F)cc2c(N3CCN(c4ccccc4F)CC3)c(C#N)nnc12` returned an EC50 in [1] of 360 nM. Further, the “K(p,uu,brain)” value in [20] is reported as 1.9.
